Data published in patent publication US9096641B2, “Imidazolyl progesterone antagonists” (Evestra, Inc., priority 2013, dated 2015).

Key:
[1] = biological target: T1, glucocorticoid receptor (Homo sapiens, UniProt P04150); assay: Glucocorticoid Antagonist Screen (SelectScreen cell-based nuclear receptor profiling, GeneBLAzer beta-lactamase reporter); conditions: relative to RU486, which is 100%; glucocorticoid receptor-LBD-UAS-bla HEK 293T cells; activated by control agonist Dexamethasone
T1 construct: host or cells: HEK 293T
T1 sequence (P04150 524-758 limits assumed): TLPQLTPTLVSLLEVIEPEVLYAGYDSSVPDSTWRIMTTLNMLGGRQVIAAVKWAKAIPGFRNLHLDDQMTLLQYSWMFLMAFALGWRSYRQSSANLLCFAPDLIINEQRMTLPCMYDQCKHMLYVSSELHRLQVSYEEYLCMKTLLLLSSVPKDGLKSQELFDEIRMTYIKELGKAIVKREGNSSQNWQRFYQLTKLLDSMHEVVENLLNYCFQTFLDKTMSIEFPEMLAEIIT
Protocol: (§1) Determination of the agonist/antagonist nature of the test compounds was carried out using Invitrogen's SelectScreen™ Cell-based nuclear receptor profiling service which uses the GeneBLAzer® Beta-lactamase reporter technology. Basically this assay uses a Beta-lactamase cDNA under transcriptional control of an Upstream Activator Sequence (UAS). The UAS is activated by the GAL4 transcription factor DNA binding domain (DBD), which is expressed as a fusion protein with the target receptor ligand binding domain (LBD). Upon ligand binding, the GAL4(DBD)-NR(LDB) binds to the UAS, which controls transcription of Beta-lactamase. Beta-lactamase cleaves a special engineered fluorescent substrate which results in a change in the measured fluorescence wavelength.
(§2) The progesterone receptor-LBD-UAS-bla HEK 293T cells are thawed and prepared as described above for the Agonist screen. 4 μL of a 10× serial dilution of control antagonist RU486 (starting concentration, 100 nM) or test compounds are added to appropriate wells of a TC-Treated assay plate. 32 μL of cell suspension is added to the wells which is then pre-incubated at 37° C./5% CO2 in a humidified incubator with test compounds and control antagonist titration for 30 min. 4 μL of a 10× control agonist (see above) at the predetermined EC80 concentration is added to wells containing the control antagonist or test compounds. The plate is incubated for 16-24 h at 37° C./5% CO2 in a humidified incubator. 8 μL of 1 μM Substrate Loading Solution is added to each well and the plate is incubated for 2 h at room temperature. The plate is then read on a fluorescence plate reader (Tecan Safire).
The generalized protocol for the Glucocorticoid Antagonist Screen activated by control Agonist Dexamethasone was carried out as described for the Progesterone Antagonist Screen with the exception that glucocorticoid receptor-LBD-UAS-bla HEK 293T cells were used. The control antagonist used for the glucocorticoid assay was also RU486.

[2] = biological target: T2, progesterone receptor (Homo sapiens, UniProt P06401); assay: Progesterone Antagonist Screen (SelectScreen cell-based nuclear receptor profiling, GeneBLAzer beta-lactamase reporter); conditions: relative to RU486, which is 100%; progesterone receptor-LBD-UAS-bla HEK 293T cells; activated by control agonist R5020 at EC80
T2 construct: host or cells: HEK 293T
T2 sequence (P06401 679-913 limits assumed): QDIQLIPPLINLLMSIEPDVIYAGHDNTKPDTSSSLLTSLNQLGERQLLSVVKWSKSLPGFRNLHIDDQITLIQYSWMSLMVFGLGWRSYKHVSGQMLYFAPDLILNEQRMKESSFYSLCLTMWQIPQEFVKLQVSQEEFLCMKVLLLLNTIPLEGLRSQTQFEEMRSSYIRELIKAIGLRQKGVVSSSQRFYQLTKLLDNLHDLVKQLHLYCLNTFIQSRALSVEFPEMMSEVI
Protocol: as §1
The generalized protocol used for the Progesterone Antagonist Screen, activated by control Agonist R5020 is as follows:
as §2

| Compound | Glucocorticoid Antagonist (%) [1] | Progesterone Antagonist (%) [2] |
| --- | --- | --- |
| C[C@]12C[C@H](c3ccc(-n4ccnc4)cc3)C3=C4CCC(=O)C=C4CC[C@H]3[C@@H]1CC[C@@]2(O)C#CC(F)(F)F [Ib, 11β-(4′-(1-imidazolyl)phenyl)-17β-hydroxy-17-(3,3,3-trifluoro-1-propynyl)-estra-4,9-diene-3-one] | 83% | 34% |
| C=CC(F)(F)[C@]1(O)CC[C@H]2[C@@H]3CCC4=CC(=O)CCC4=C3[C@@H](c3ccc(-n4ccnc4)cc3)C[C@@]21C [Id, 11β-(4′-(1-imidazolyl)phenyl)-17β-hydroxy-17-(1,1-difluoroprop-2-enyl)-estra-4,9-diene-3-one] | 13% | 90% |
| CC(=O)c1ccc([C@H]2C[C@@]3(C)[C@@H](CC[C@@]3(O)C(F)(F)C(F)(F)F)[C@@H]3CCC4=CC(=O)CCC4=C32)cc1 [ZK 230211, reference compound] | 6% | 81% |

Other lines, results leading:

| Glucocorticoid Antagonist (%) [1] | Progesterone Antagonist (%) [2] | Compound |
| --- | --- | --- |
| 9% | 267% | C[C@]12C[C@H](c3ccc(-n4ccnc4)cc3)C3=C4CCC(=O)C=C4CC[C@H]3[C@@H]1CC[C@@]2(O)C(F)(F)C(F)(F)F [Ia, 11β-(4′-(1-imidazolyl)phenyl)-17β-hydroxy-17-(1,1,2,2,2-pentafluoroethyl)-estra-4,9-diene-3-one] |
| 31% | 54% | C[C@]12C[C@H](c3ccc(-n4ccnc4)cc3)C3=C4CCC(=O)C=C4CCC3C1CC[C@@]2(O)/C=C/C(F)(F)F (stereo partly drawn) [Ic, 11β-(4′-(1-imidazolyl)phenyl)-17β-hydroxy-17-(3,3,3-trifluoroprop-1(E)-enyl)-estra-4,9-diene-3-one] |
| 5% | 163% | C=C1CCOC12CCC1C3CCC4=CC(=O)CCC4=C3[C@@H](c3ccc(-n4ccnc4)cc3)C[C@@]12C (stereo partly drawn) [Ie, 11β-(4′-[1-imidazolyl]phenyl)-17,23-epoxy-19,24-dinor-17α-chola-4,9,20-triene-3-one] |
